Measurements taken from the NIST ThermoML archive (doi:10.1021/je034162x).

Conditions: 101.33 kPa, Liquid, Hot wire method

C1=CCCC=C1 [1,3-cyclohexadiene]
Conditions | thermal conductivity [W/m/K] | thermal diffusivity [m2/s]
258.35 K | 0.1451 | –
258.52 K | 0.1449 | –
258.62 K | 0.1448 | –
258.89 K | – | 8.41e-08
259.3 K | – | 8.45e-08
259.56 K | – | 8.41e-08
264.66 K | 0.1428 | –
264.8 K | 0.1426 | –
264.89 K | 0.1424 | –
265.09 K | – | 7.72e-08
265.41 K | – | 7.72e-08
265.61 K | – | 7.69e-08
279.17 K | 0.138 | –
279.31 K | 0.1379 | –
279.41 K | 0.1378 | –
279.59 K | – | 7.36e-08
279.93 K | – | 7.41e-08
280.16 K | – | 7.41e-08
296.25 K | 0.1334 | –
296.51 K | 0.1332 | –
296.69 K | 0.1331 | –
297.24 K | – | 8.95e-08
297.94 K | – | 8.98e-08
298.42 K | – | 8.98e-08
313.95 K | 0.1278 | –
314.22 K | 0.1276 | –
314.41 K | 0.1275 | –
314.96 K | – | 8.51e-08
315.67 K | – | 8.53e-08
316.17 K | – | 8.51e-08
328.56 K | 0.1232 | –
328.84 K | 0.1231 | –
329.08 K | 0.1231 | –
329.6 K | – | 8.17e-08
330.32 K | – | 8.17e-08
330.99 K | – | 8.19e-08

CC(C)c1ccccc1 [isopropylbenzene]
Conditions | thermal conductivity [W/m/K] | thermal diffusivity [m2/s]
261.13 K | 0.1263 | –
261.33 K | 0.1262 | –
261.48 K | 0.1262 | –
261.85 K | – | 8.45e-08
262.36 K | – | 8.45e-08
262.72 K | – | 8.44e-08
275.03 K | 0.1238 | –
275.24 K | 0.1237 | –
275.4 K | 0.1237 | –
275.75 K | – | 8.18e-08
276.27 K | – | 8.21e-08
276.65 K | – | 8.22e-08
294.11 K | 0.1202 | –
294.32 K | 0.12 | –
294.47 K | 0.1199 | –
294.85 K | – | 7.92e-08
295.35 K | – | 7.86e-08
295.72 K | – | 7.86e-08
312.46 K | 0.1164 | –
312.68 K | 0.1163 | –
312.84 K | 0.1162 | –
313.18 K | – | 7.51e-08
313.72 K | – | 7.54e-08
314.09 K | – | 7.53e-08
329.45 K | 0.1128 | –
329.68 K | 0.1127 | –
329.83 K | 0.1126 | –
330.17 K | – | 7.21e-08
330.7 K | – | 7.21e-08
331.08 K | – | 7.21e-08

C1CCCC1 [cyclopentane]
Conditions | thermal conductivity [W/m/K] | thermal diffusivity [m2/s]
257.08 K | 0.1428 | –
257.27 K | 0.1426 | –
257.4 K | 0.1425 | –
257.78 K | – | 1.11e-07
258.26 K | – | 1.11e-07
258.6 K | – | 1.11e-07
276.13 K | 0.1349 | –
276.33 K | 0.1348 | –
276.47 K | 0.1348 | –
276.83 K | – | 1.03e-07
277.31 K | – | 1.03e-07
277.68 K | – | 1.03e-07
293.63 K | 0.1281 | –
293.83 K | 0.1279 | –
293.97 K | 0.1278 | –
294.33 K | – | 9.64e-08
294.82 K | – | 9.62e-08
295.17 K | – | 9.61e-08
300.67 K | 0.1254 | –
300.87 K | 0.1253 | –
301.01 K | 0.1251 | –
301.34 K | – | 9.3e-08
301.83 K | – | 9.29e-08
302.17 K | – | 9.28e-08
316.21 K | 0.1195 | –
316.4 K | 0.1193 | –
316.54 K | 0.1192 | –
316.87 K | – | 8.68e-08
317.34 K | – | 8.66e-08
317.67 K | – | 8.65e-08

Cc1ccc(C)c(C)c1 [1,2,4-trimethylbenzene]
Conditions | thermal conductivity [W/m/K] | thermal diffusivity [m2/s]
257.58 K | 0.1345 | –
257.79 K | 0.1344 | –
257.93 K | 0.1344 | –
258.32 K | – | 8.89e-08
258.85 K | – | 8.91e-08
259.23 K | – | 8.92e-08
276.33 K | 0.1314 | –
276.54 K | 0.1313 | –
276.69 K | 0.1312 | –
277.09 K | – | 8.61e-08
277.61 K | – | 8.58e-08
277.99 K | – | 8.6e-08
283.32 K | 0.1301 | –
283.54 K | 0.13 | –
283.68 K | 0.1299 | –
284.07 K | – | 8.48e-08
284.63 K | – | 8.52e-08
284.98 K | – | 8.47e-08
295.54 K | 0.1277 | –
295.76 K | 0.1277 | –
295.91 K | 0.1275 | –
296.3 K | – | 8.26e-08
296.84 K | – | 8.28e-08
297.21 K | – | 8.25e-08
312.75 K | 0.1244 | –
312.98 K | 0.1242 | –
313.13 K | 0.1241 | –
313.53 K | – | 8e-08
314.08 K | – | 8e-08
314.44 K | – | 7.96e-08
330.69 K | 0.1205 | –
330.93 K | 0.1205 | –
331.09 K | 0.1204 | –
331.46 K | – | 7.65e-08
332.04 K | – | 7.69e-08
332.43 K | – | 7.68e-08
